Reference: patent US9617264B2, “2,7-diazaspiro[3.5]nonane compounds” (REMYND NV, priority 2014, dated 2017)

Tested on: M17_3SYN cells
Assay: Paraquat-induced cytotoxicity (LDH) in α-synuclein over-expressing M17_3SYN neuroblastoma cells
Format: cell-based
Conditions: Homo sapiens, Neuroblastoma cell, 48 h, 6 mM Paraquat, 2 days, LDH toxicity inhibition, read-out: SYN EC50
Excerpt: A α-synuclein expression plasmid was constructed by subcloning the NcoI/XhoI fragment from 212T-SYN(WT) (Griffioen et al., Biochem Biophys Acta (2006) 1762(3):312-318) containing the cDNA of human wild type α-synuclein correspondingly into a standard mammalian expression vector pcDNA3.1 resulting in plasmid pcDNA3.1-SYNwt. Plasmids pcDNA3.1 and pcDNA3.1-SYNwt were transfected into human neuroblastoma cells (BE-M17; ATCC No. CRL-2267™) using lipofectamine reagent and subsequently, independent clonal cell lines with the plasmids stably integrated into the genome were selected by antibiotic resistance selection (Geneticin (G418)), resulting in cell lines M17.pcDNA3 and M17_3SYN. Overexpression of α-synuclein in the M17_3SYN cell line was confirmed by Western blot analysis.
Due to the high levels of α-synuclein, M17_3SYN cells were sensitive to paraquat, a well-known risk factor Parkinson's disease and of synuclein-dependent neuronal degeneration. Cytotoxicity of cells was measured by quantification of lactate dehydrogenase (LDH) levels. In dead cells, LDH leaked out of the cells into the medium due to a loss of plasma-membrane integrity.
Three days preceding the experiment, primary pre-cultures of M17.pcDNA3 (as possible control) and M17_3SYN cells were prepared, starting from a stock culture, at a density of 20.000-40.000 cells/cm2 in culture medium (Opti-MEM® Reduced Serum Medium with Phenol Red (Invitrogen, Cat. 31985-047) supplemented with 10% FCS, 1 mM sodium pyruvate, 1×NEAA, 500 μg/ml G418 and 0.5× antibiotic/antimycotic (ABAM)). 3 days later these primary pre-cultures were used as a starting point to make secondary pre-cultures at a density of 50.000-100.000 cells/cm^2. At the day of the experiment these secondary precultures were diluted to ˜0.5·10^6 cells/ml in detection medium (Opti-MEM® Reduced-Serum Medium without Phenol Red (Invitrogen, Cat. 11085-021) supplemented with 10% FCS, 1 mM sodium pyruvate, 1×NEAA, 500 μg/ml G418 and 0.5×ABAM) and 60 μL of this suspension was dispensed per well into a 96-well microtiter plate. After 3 hours of incubation at 37° C./5% CO2 an equal volume of detection medium containing a final concentration of 6 mM Paraquat was added and subsequently incubated for 2 days at 37° C./5% CO2. Then LDH activity was determined using the Promega Cytotox 96 Non-Radioactive cytotoxicity assay (Promega, Cat. G1780), according to the manufacturer's instructions. Cytotoxicity was defined as the ratio of LDH relative to the total LDH in the cells and supernatant.
The assay described above using the M17_3SYN cell line allowed screening compounds for their ability to decrease cytotoxicity in PQ-challenged cells. Compounds of the invention were tested for their ability to decrease toxicity at different concentrations, ranging from low non-effective concentrations to high effective concentrations. Afterwards, a dose-dependent inhibition curve was used to calculate the EC50. A compound was considered to be active in this test when it inhibited toxicity by more than 20% relative to untreated M17_3SYN cells at a concentration of […] or lower.

Compared with `CCc1ccc(S(=O)(=O)N2CCC3(CC2)CN(c2nc(Cc4ccc(F)cc4)ns2)C3)cc1` [Cmpd068, 5-(7-((4-Ethylphenyl)sulfonyl)-2,7-diazaspiro[3.5]nonan-2-yl)-3-(4-fluorobenzyl)-1,2,4-thiadiazole], `CSc1ccc(S(=O)(=O)N2CCC3(CC2)CN(c2nc(Cc4ccc(F)cc4)ns2)C3)cc1` [Cmpd041, 3-(4-Fluorobenzyl)-5-(7-((4-(methylthio)phenyl)sulfonyl)-2,7-diazaspiro[3.5]nonan-2-yl)-1,2,4-thiadiazole] is 2.3-fold lower in EC50: 399 nM for the first, 177 nM for the second.

Compared with `COc1ccccc1S(=O)(=O)N1CCC2(CC1)CN(c1nc(Cc3ccc(F)cc3)ns1)C2` [Cmpd080, 3-(4-Fluorobenzyl)-5-(7-((2-methoxyphenyl)sulfonyl)-2,7-diazaspiro[3.5]nonan-2-yl)-1,2,4-thiadiazole], `Cc1ccccc1S(=O)(=O)N1CCC2(CC1)CN(c1nc(Cc3ccc(F)cc3)ns1)C2` [Cmpd069, 3-(4-Fluorobenzyl)-5-(7-(o-tolylsulfonyl)-2,7-diazaspiro[3.5]nonan-2-yl)-1,2,4-thiadiazole] is 2.8-fold lower in EC50: 501 nM for the first, 182 nM for the second.

`Cc1ccc(S(=O)(=O)N2CCC3(CC2)CN(c2nc(Cc4ccc(F)cc4)ns2)C3)s1` [Cmpd095, 3-(4-Fluorobenzyl)-5-(7-((5-methylthiophen-2-yl)sulfonyl)-2,7-diazaspiro[3.5]nonan-2-yl)-1,2,4-thiadiazole] and `Cc1cccc(S(=O)(=O)N2CCC3(CC2)CN(c2nc(Cc4ccc(F)cc4)ns2)C3)c1` [Cmpd066, 3-(4-Fluorobenzyl)-5-(7-(m-tolylsulfonyl)-2,7-diazaspiro[3.5]nonan-2-yl)-1,2,4-thiadiazole] are within 1.5-fold of each other in EC50: 377 nM for the first, 399 nM for the second.

First: COc1ccc(S(=O)(=O)N2CCC3(CC2)CN(C(=O)C(C)(C)c2ccccc2)C3)cc1 [Cmpd013, 1-(7-((4-Methoxyphenyl)sulfonyl)-2,7-diazaspiro[3.5]nonan-2-yl)-2-methyl-2-phenylpropan-1-one]
Second: COc1ccc(S(=O)(=O)N2CCC3(CC2)CN(C(=O)C(C)(C)c2cccc(OC)c2)C3)cc1 [Cmpd016, 2-(3-Methoxyphenyl)-1-(7-((4-methoxyphenyl)sulfonyl)-2,7-diazaspiro[3.5]nonan-2-yl)-2-methylpropan-1-one]
The EC50 of the first is 1.5-fold higher: 44.4 nM for the first, 29.3 nM for the second.

`O=S(=O)(c1cc(F)ccc1F)N1CCC2(CC1)CN(c1nc(Cc3ccc(F)cc3)ns1)C2` [Cmpd073, 5-(7-((2,5-Difluorophenyl)sulfonyl)-2,7-diazaspiro[3.5]nonan-2-yl)-3-(4-fluorobenzyl)-1,2,4-thiadiazole] and `Cc1ccc(F)cc1S(=O)(=O)N1CCC2(CC1)CN(c1nc(Cc3ccc(F)cc3)ns1)C2` [Cmpd077, 5-(7-((5-Fluoro-2-methylphenyl)sulfonyl)-2,7-diazaspiro[3.5]nonan-2-yl)-3-(4-fluorobenzyl)-1,2,4-thiadiazole] are within 1.5-fold of each other in EC50: 217 nM for the first, 235 nM for the second.

`COc1ccc(F)cc1S(=O)(=O)N1CCC2(CC1)CN(c1nc(Cc3ccc(F)cc3)ns1)C2` [Cmpd086, 5-(7-((5-Fluoro-2-methoxyphenyl)sulfonyl)-2,7-diazaspiro[3.5]nonan-2-yl)-3-(4-fluorobenzyl)-1,2,4-thiadiazole] and `COc1ccc(C)cc1S(=O)(=O)N1CCC2(CC1)CN(c1nc(Cc3ccc(F)cc3)ns1)C2` [Cmpd062, 3-(4-Fluorobenzyl)-5-(7-((2-methoxy-5-methylphenyl)sulfonyl)-2,7-diazaspiro[3.5]nonan-2-yl)-1,2,4-thiadiazole] are within 1.5-fold of each other in EC50: 300 nM for the first, 342 nM for the second.

First: CCCCc1nsc(N2CC3(CCN(S(=O)(=O)c4ccc(OC)cc4)CC3)C2)n1 [Cmpd035, 3-Butyl-5-(7-((4-methoxyphenyl)sulfonyl)-2,7-diazaspiro[3.5]nonan-2-yl)-1,2,4-thiadiazole]
Second: COc1ccc(S(=O)(=O)N2CCC3(CC2)CN(c2nc(Cc4ccc(F)cc4)ns2)C3)cc1 [Cmpd057, 3-(4-Fluorobenzyl)-5-(7-((4-methoxyphenyl)sulfonyl)-2,7-diazaspiro[3.5]nonan-2-yl)-1,2,4-thiadiazole]
The EC50 of the first is 170-fold higher: 326 nM for the first, 1.9 nM for the second.

`Cn1cc(S(=O)(=O)N2CCC3(CC2)CN(c2nc(Cc4ccc(F)cc4)ns2)C3)cn1` [Cmpd090, 3-(4-Fluorobenzyl)-5-(7-((1-methyl-1H-pyrazol-4-yl)sulfonyl)-2,7-diazaspiro[3.5]nonan-2-yl)-1,2,4-thiadiazole] and `O=S(=O)(c1cc(F)cc(F)c1)N1CCC2(CC1)CN(c1nc(Cc3ccc(F)cc3)ns1)C2` [Cmpd083, 5-(7-((3,5-Difluorophenyl)sulfonyl)-2,7-diazaspiro[3.5]nonan-2-yl)-3-(4-fluorobenzyl)-1,2,4-thiadiazole] are within 1.5-fold of each other in EC50: 285 nM for the first, 375 nM for the second.

`COc1ccc(S(=O)(=O)N2CCC3(CC2)CN(c2nc(Cc4cccc(C(F)(F)F)c4)ns2)C3)cc1` [Cmpd036, 5-(7-((4-Methoxyphenyl)sulfonyl)-2,7-diazaspiro[3.5]nonan-2-yl)-3-(3-(trifluoromethyl)benzyl)-1,2,4-thiadiazole] and `O=S(=O)(c1ccc(OC(F)F)cc1)N1CCC2(CC1)CN(c1nc(Cc3ccc(F)cc3)ns1)C2` [Cmpd085, 5-(7-((4-(Difluoromethoxy)phenyl)sulfonyl)-2,7-diazaspiro[3.5]nonan-2-yl)-3-(4-fluorobenzyl)-1,2,4-thiadiazole] are within 1.5-fold of each other in EC50: 499 nM for the first, 541 nM for the second.

`COC(=O)c1cccc(S(=O)(=O)N2CCC3(CC2)CN(c2nc(Cc4ccc(F)cc4)ns2)C3)c1` [Cmpd084, Methyl 3-((2-(3-(4-fluorobenzyl)-1,2,4-thiadiazol-5-yl)-2,7-diazaspiro[3.5]nonan-7-yl)sulfonyl)benzoate] and `COc1ccc(S(=O)(=O)N2CCC3(CC2)CN(c2nc(Cc4ccc(F)cc4)ns2)C3)cc1OC` [Cmpd061, 5-(7-((3,4-Dimethoxyphenyl)sulfonyl)-2,7-diazaspiro[3.5]nonan-2-yl)-3-(4-fluorobenzyl)-1,2,4-thiadiazole] are within 1.5-fold of each other in EC50: 383 nM for the first, 320 nM for the second.

`O=S(=O)(c1ccc(OC(F)F)cc1)N1CCC2(CC1)CN(c1nc3ccc(Cl)cc3s1)C2` [Cmpd054, 6-Chloro-2-(7-((4-(difluoromethoxy)phenyl)sulfonyl)-2,7-diazaspiro[3.5]nonan-2-yl)benzo[d]thiazole] and `COc1ccc(S(=O)(=O)N2CCC3(CC2)CN(c2nc4ccc(Cl)cc4s2)C3)cc1` [Cmpd052, 6-Chloro-2-(7-((4-methoxyphenyl)sulfonyl)-2,7-diazaspiro[3.5]nonan-2-yl)benzo[d]thiazole] are within 1.5-fold of each other in EC50: 406 nM for the first, 463 nM for the second.

Going from `COc1ccc(S(=O)(=O)N2CCC3(CC2)CN(S(=O)(=O)c2ccc(F)cc2)C3)cc1` [Cmpd002, 2-((4-Fluorophenyl)sulfonyl)-7-((4-methoxyphenyl)sulfonyl)-2,7-diazaspiro[3.5]nonane] to `COc1ccc(OC)c(S(=O)(=O)N2CCC3(CC2)CN(c2nc(Cc4ccc(F)cc4)ns2)C3)c1` [Cmpd072, 5-(7-((2,5-Dimethoxyphenyl)sulfonyl)-2,7-diazaspiro[3.5]nonan-2-yl)-3-(4-fluorobenzyl)-1,2,4-thiadiazole], the EC50 rises from 25.8 nM to 212 nM (8.2-fold). The first is the more potent here.

Going from `CSc1ccc(S(=O)(=O)N2CCC3(CC2)CN(c2nc4ccc(Cl)cc4s2)C3)cc1` [Cmpd055, 6-Chloro-2-(7-((4-(methylthio)phenyl)sulfonyl)-2,7-diazaspiro[3.5]nonan-2-yl)benzo[d]thiazole] to `O=S(=O)(N1CCOCC1)N1CCC2(CC1)CN(c1nc(Cc3ccc(F)cc3)ns1)C2` [Cmpd098, 4-((2-(3-(4-Fluorobenzyl)-1,2,4-thiadiazol-5-yl)-2,7-diazaspiro[3.5]nonan-7-yl)sulfonyl)morpholine], the EC50 rises from 334 nM to 1190 nM (3.6-fold). The first is the more potent here.
